Assay results from ChEMBL document CHEMBL1201862, “PubChem BioAssay data set” (2004).
The source made the active and inactive calls.

Key:
[1] = target: Potassium channel subfamily K member 3 (Rattus norvegicus, UniProt O54912); experiment: SAR analysis for the identification of selective inhibitors of the two-pore domain potassium channel TASK1(KCNK3):Automated Electrophysiology.; format: functional
[2] = target: Potassium channel subfamily K member 9 (Homo sapiens, UniProt Q9NPC2); experiment: KCNK9 flux blockade, concentration-response – cell-based, FluxOR thallium flux, selectivity assay for TASK1 inhibitor project, SAR follow-up (AID 652211); format: functional;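 also: potency is for inhibitors of the channel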
Sequence of Potassium channel subfamily K member 9 (Q9NPC2 whole entry): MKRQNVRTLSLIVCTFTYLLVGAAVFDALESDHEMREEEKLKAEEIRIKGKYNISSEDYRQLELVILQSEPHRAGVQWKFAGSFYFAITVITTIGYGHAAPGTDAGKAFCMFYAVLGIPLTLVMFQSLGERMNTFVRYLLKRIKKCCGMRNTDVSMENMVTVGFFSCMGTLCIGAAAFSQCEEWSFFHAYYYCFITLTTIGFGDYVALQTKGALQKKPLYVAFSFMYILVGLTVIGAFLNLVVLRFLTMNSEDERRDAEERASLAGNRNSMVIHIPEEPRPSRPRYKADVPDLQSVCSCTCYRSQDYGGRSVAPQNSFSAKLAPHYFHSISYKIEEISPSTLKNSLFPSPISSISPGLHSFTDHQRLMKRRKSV

[3] = target: Potassium channel subfamily K member 3 (Homo sapiens, UniProt O14649); experiment: inhibition of human KCNK3 channel flux – CHO cells, FluxOR thallium flux, SAR follow-up (AID 652212); format: functional
Sequence of Potassium channel subfamily K member 3 (Homo sapiens, UniProt O14649) (O14649 whole entry): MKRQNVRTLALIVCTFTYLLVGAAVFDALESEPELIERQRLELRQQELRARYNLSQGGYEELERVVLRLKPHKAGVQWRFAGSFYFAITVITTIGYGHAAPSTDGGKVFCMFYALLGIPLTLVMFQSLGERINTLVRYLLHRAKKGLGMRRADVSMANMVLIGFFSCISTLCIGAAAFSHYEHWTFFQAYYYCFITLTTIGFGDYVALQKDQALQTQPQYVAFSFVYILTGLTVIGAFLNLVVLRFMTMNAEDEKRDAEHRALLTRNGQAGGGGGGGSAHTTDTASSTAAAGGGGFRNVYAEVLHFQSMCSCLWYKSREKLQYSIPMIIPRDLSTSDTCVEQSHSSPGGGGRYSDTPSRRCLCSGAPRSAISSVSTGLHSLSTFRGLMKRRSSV

[4] = reduced cellular PGC1a acetyl-lysine signal – cell-based, cherry-picked samples, dose response (AID 720514); format: functional;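 also: potency may reflect raised or lowered acetylation signal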
[5] = OVCAR8 cell viability loss – plate reader, dry powder samples, PAX8 project, dose response (AID 743197); format: functional, cell-based; conditions: OVCAR-8
[6] = OVCAR-3 cell viability loss – plate reader, dry powder samples, PAX8 inhibitor project, dose response (AID 743044); format: functional, cell-based
[7] = toxicity to human hepatoma HepG2 cells – cell-based, cherry-picked samples, cytotoxicity control, dose response (AID 1159577); format: functional
[8] = toxicity toward immortalized ovarian surface epithelium – cell-based, plate reader, dry powder samples, cytotoxicity control for PAX8 inhibitor project, dose response (AID 743045); format: functional
[9] = general cell-killing toxicity readout – plate reader, dry powder samples, cytotoxicity control for PAX8 inhibitor project, dose response (AID 743021); format: functional, cell-based
[10] = P. falciparum Dd2 growth inhibitors, dose response, SYBR Green, cherry-picked samples (AID 1159567); format: functional, cell-based
Paired box protein Pax-8 = Paired box protein Pax-8 (Homo sapiens, UniProt Q06710); experiment: PAX8 transcriptional activity inhibition in RMG-I – RMG-I cells, luciferase, cherry-pick, dose response (AID 687027); format: functional, cell-based;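 also: luciferase reporter driven by Pax8 target thyroperoxidase promoter measured by SteadyGlo luminescence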
Sequence of Paired box protein Pax-8 (Q06710 whole entry): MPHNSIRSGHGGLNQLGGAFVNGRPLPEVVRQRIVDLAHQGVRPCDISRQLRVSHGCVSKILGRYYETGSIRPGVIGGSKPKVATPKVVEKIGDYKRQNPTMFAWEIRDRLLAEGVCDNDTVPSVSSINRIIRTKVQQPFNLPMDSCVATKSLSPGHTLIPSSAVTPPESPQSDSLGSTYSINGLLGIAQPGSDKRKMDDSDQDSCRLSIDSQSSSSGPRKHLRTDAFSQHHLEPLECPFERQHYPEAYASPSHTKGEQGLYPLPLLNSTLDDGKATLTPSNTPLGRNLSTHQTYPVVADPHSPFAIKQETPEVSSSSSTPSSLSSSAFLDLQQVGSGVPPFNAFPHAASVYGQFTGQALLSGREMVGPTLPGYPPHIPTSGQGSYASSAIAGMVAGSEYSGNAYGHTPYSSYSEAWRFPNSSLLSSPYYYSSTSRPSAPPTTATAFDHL

[11] = toxicity toward HepG2 hepatoma cells – cell-based, dry powder samples, cytotoxicity control, dose response (AID 720568); format: functional
cells [12] = conditions: HEK293
BJ [13] = experiment: BJ-TERT fibroblast viability loss – cell-based, RAS-independent, luminescence, dose response (AID 1933); format: functional; conditions: Homo sapiens
cells [14] = conditions: A549
BJ [15] = experiment: cells; format: functional, cell-based; conditions: Homo sapiens
BJ [16] = experiment: BJ-TERT-LT-ST fibroblast viability loss – cell-based, RAS-independent, luminescence, dose response (AID 1935); format: functional; conditions: Homo sapiens;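 also: BJ fibroblasts immortalized with TERT plus LT and ST oncogenes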
[17] = DRD fibroblast viability loss – cell-based, non-viral oncogenic, luminescence, dose response (AID 1934); format: functional; conditions: Homo sapiens
H9c2 = experiment: cells; format: functional, cell-based; conditions: Rattus norvegicus, H9c2, Myocardium;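 also: confirmatory concentration-response retest of ultra-high-throughput screening hits for modulation of myocardial damage; cell death induced by hydrogen peroxide oxidative stress; compound pretreatment for 60 min then peroxide exposure for 2 h; potency is for protecting the cells against peroxide damage rather than for killing them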
[18] = IC50 of Artemis nuclease activity blockers – biochemical, fluorescence intensity, dose response (AID 720701); format: functional;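 also: Artemis endonuclease enzyme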
[19] = Late stage results for the probe development effort to identify inhibitors of Plasmodium falciparum gametocytes: Luminescence-based cell-based high throughput dose response assay to identify inhibitors of viability of late stage Plasmodium falciparum gametocytes.; format: functional
[20] = M. tuberculosis H37Rv growth inhibitors, H37Rv strain (AID 1626); format: functional
[21] = cytotoxicity toward HT-29 cells – cell-based, CellTiter-Glo luminescence, IC50, dose response (AID 1117330); format: functional
[22] = cytotoxicity toward Colo320 cells – cell-based, CellTiter-Glo luminescence, IC50, dose response (AID 1117334); format: functional; conditions: COLO 320
[23] = CellTiter-Glo luminescence survival assay, SW480 colon tumor line, concentration-response curve, half-maximal inhibitory concentration (AID 1117338); format: functional
[24] = glucagon-like peptide-1 release potency in STC-1, concentration-response, half-maximal inhibitory concentration in the STC-1 line (AID 1117345); format: functional, cell-based
[25] = RKO cell viability reduction, dose response, CellTiter-Glo luminescence (AID 1117322); format: functional
[26] = Potency on glucagon-like peptide 1 release, dose-response in NCI-H716 cell line, half maximal inhibitory concentration (AID 1117344); format: functional, cell-based
[27] = HCT116 cell viability decrease, GSK3B pretreatment – CellTiter-Glo, IC50, dose response (AID 1117339); format: functional; conditions: HCT-116
[28] = cytotoxicity toward HCT116 cells – cell-based, CellTiter-Glo luminescence, IC50, dose response (AID 1117332); format: functional; conditions: HCT-116
Protein Tat = Protein Tat (Human immunodeficiency virus type 1 group M subtype B (isolate HXB2)(HIV-1), UniProt P04608); format: functional;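 also: tat binding to TAR RNA read out by fluorescence polarization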
Sequence of Protein Tat (P04608 whole entry): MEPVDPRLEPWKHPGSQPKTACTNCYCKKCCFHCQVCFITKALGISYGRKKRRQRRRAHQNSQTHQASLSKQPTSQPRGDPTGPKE

[29] = target: T1, Calpain-2 catalytic subunit (Sus scrofa, UniProt P43367); experiment: m-calpain protease blockers, concentration series – biochemical, fluorogenic peptide substrate, dose response (AID 1420); format: functional
T1 sequence (P43367 whole entry): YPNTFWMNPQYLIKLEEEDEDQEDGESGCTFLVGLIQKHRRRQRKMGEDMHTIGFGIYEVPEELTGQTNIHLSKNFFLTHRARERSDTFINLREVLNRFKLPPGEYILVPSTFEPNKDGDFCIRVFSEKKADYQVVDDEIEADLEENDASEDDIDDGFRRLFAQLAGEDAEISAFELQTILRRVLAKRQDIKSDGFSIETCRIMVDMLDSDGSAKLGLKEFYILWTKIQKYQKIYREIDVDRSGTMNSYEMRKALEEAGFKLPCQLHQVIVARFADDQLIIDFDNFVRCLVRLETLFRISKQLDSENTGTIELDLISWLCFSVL

[30] = viability loss in Vero cells – cytotoxicity control for Vif-APOBEC3G degradation inhibitor project, dose response (AID 1117358); format: functional; conditions: Vero
[31] = target: T2, Rac GTPase-activating protein 1 (Homo sapiens, UniProt Q9H0H5); experiment: blockers of MgcRacGAP-driven Rac1 GTP hydrolysis – biochemical, ADP Hunter fluorescence, primary and confirmatory, confirmation (AID 624330); format: functional
T2 sequence (Q9H0H5 whole entry): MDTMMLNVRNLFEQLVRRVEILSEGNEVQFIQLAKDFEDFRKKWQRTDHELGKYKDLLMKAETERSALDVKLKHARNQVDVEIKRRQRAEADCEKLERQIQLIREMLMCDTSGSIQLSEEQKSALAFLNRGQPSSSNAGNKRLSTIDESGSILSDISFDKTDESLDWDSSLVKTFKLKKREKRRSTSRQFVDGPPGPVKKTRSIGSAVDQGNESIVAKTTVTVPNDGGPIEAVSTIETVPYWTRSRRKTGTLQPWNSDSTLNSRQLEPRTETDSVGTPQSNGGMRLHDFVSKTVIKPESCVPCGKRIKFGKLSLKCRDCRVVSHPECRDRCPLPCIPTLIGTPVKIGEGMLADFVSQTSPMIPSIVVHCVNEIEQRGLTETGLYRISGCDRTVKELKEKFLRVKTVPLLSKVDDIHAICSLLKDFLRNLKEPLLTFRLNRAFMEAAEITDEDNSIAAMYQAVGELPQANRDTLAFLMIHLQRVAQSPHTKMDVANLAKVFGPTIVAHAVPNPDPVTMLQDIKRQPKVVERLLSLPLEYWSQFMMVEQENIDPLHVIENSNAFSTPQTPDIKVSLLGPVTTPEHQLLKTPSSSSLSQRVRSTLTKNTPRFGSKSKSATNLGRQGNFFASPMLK

[32] = viability loss in THP-1 monocytes – THP-1 cells, cytotoxicity control for Vif-APOBEC3G degradation inhibitor project, dose response (AID 1117359); format: functional; conditions: THP-1
X-box-binding protein 1 = X-box-binding protein 1 (Homo sapiens, UniProt P17861); format: functional, Cricetulus griseus;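 also: confirmatory dose-response counter-screen serving a CHOP assay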
Sequence of X-box-binding protein 1 (P17861 whole entry): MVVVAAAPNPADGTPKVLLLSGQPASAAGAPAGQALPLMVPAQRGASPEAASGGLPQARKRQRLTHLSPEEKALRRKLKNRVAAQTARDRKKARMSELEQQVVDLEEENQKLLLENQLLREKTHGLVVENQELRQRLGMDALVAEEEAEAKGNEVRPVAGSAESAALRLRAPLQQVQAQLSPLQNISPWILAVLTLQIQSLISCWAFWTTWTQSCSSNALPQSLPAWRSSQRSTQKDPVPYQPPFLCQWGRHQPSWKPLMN

Vero = experiment: viability of Vero cells under compound – cytotoxicity control for flavivirus capping enzyme inhibitors (AID 588742); format: functional; conditions: Chlorocebus sabaeus
[33] = viability loss in HeLa cells – cytotoxicity control for MgcRacGAP inhibitor project, dose response (AID 624300); format: functional
[34] = viability of uninfected HEp-2 cells – cell-based, HTS, cytotoxicity control for RSV inhibitor project, dose response (AID 2410); format: functional; conditions: human respiratory syncytial virus
cells [35] = experiment: cells
[36] = miR-122 quantity in Huh7 after inhibitor exposure – cell-based, RT-qPCR, dry powder, orthogonal assay for miR-122 inhibitor project, dose response (AID 687041); format: functional

Sequence of Potassium channel subfamily K member 3 (Rattus norvegicus, UniProt O54912) (O54912 whole entry, the tested form may be a part): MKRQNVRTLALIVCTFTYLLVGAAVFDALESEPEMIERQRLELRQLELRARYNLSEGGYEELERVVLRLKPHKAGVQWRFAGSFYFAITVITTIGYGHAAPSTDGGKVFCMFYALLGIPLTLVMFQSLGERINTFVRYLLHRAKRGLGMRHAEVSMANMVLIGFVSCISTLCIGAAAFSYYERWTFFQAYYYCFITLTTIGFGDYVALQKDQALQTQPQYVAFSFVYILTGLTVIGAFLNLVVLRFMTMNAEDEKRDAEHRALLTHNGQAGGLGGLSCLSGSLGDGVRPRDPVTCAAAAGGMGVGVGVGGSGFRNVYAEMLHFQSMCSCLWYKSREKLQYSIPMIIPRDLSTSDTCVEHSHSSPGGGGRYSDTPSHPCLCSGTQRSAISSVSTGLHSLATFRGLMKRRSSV

CCOc1ccccc1NC(=O)c1cccc(NC(=O)C2CCCC2)c1
IC50 [1]: 123 nM (active)
IC50 [2]: 1.84 µM (active)
IC50 [3]: 54 nM (active)

Cc1ccc(-c2ccc([C@@H]3[C@@H]4CN(C(=O)Nc5ccc(C(F)(F)F)cc5)C[C@H]3N4)cc2)cc1
AC50 [4]: 6.73 µM (active)
AC50 [5]: 22.8 µM (active)
AC50 [6]: 17 µM (active)
AC50 [7]: 2.72 µM (active)
AC50 [8]: 11.3 µM (active)
AC50 [9]: 14 µM (active)
AC50 [10]: 2.33 µM (active)
AC50 (Paired box protein Pax-8): 3.06 µM (active)

CC(=O)N[C@H]1[C@@H](O[C@@H]2OC(C[C@@H](O)C3O[C@@H](n4ccc(=O)[nH]c4=O)[C@H](O)[C@@H]3O)[C@H](O)[C@H](O)[C@H]2NC(=O)/C=C/CCCCCCCCCCC(C)C)O[C@H](CO)[C@@H](O)[C@@H]1O (stereo partly specified)
AC50 [11]: 13.5 µM (active)

CN(C)C(=O)CSc1nc2cc(C(=O)c3ccccc3)ccc2[nH]1
AC50 (cells [12]): 29.9 µM (active)
EC50 (BJ [13]): > 150 µM (not active)
AC50 (cells [14]): 35.9 µM (active)
EC50 (BJ [15]): 14.3 µM (inconclusive)
EC50 (BJ [16]): > 150 µM (inconclusive)
EC50 [17]: > 150 µM (not active)

COc1ccc(-c2nn(-c3ccccc3)cc2C(=O)Nc2nccs2)cc1
IC50 (H9c2): > 79 µM (inactive)
IC50 [18]: 9.49 µM (active)
IC50 [19]: > 74.4 µM (inactive)
IC50 [20]: > 100 µM (active)

Oc1ccc(Cl)cc1Cc1ccccc1 [CLOROPHENE]
IC50 [21]: > 20 µM (inactive)
IC50 [22]: 13 µM (inactive)
IC50 [23]: > 20 µM (inactive)
IC50 [24]: 7.62 µM (inactive)
IC50 [25]: > 20 µM (inactive)
IC50 [26]: 33.8 µM (inactive)
IC50 [27]: > 6.67 µM (inactive)
IC50 [28]: > 20 µM (inactive)

CCOc1cccc(CNc2ccc(O)cc2)c1OCc1ccc(Cl)cc1Cl
IC50 (Protein Tat): > 100 µM (inconclusive)
IC50 [29]: 8.34 µM (not active)
CC50 [30]: > 40 µM (active)
IC50 [31]: 118 µM (active)
CC50 [32]: 30.4 µM (active)
Absolute IC50 (XBP1) (X-box-binding protein 1): 10 µM
CC50 (Vero): 36.4 µM (active)
CC50 [33]: 85.7 µM (active)

CC1CCCCN1C(=O)c1cc2nc(-c3ccccc3)cc(-c3ccccc3)n2n1 (stereo unspecified)
CC50 [34]: 15.6 µM (active)
IC50 (cells [35]): 19.3 µM (active)
AC50 [36]: 1.13 µM (active)
